According to patent US9527853B2, “Fused triazole derivatives as gamma secretase modulators” (Ares Trading S.A., priority 2012, dated 2016):

Columns and labels:
AβTotal = assay: Amyloidβ peptide release (AβTotal) assay, AlphaLisa on supernatant of APPswe-HEK cells; assay type: cell-based, human; details: 24 hours, ratio Abtot versus Ab42
Procedure: (§1) Amyloidβ Peptide Release (Aβ42 & AβTotal) Assay to Determine IC50 Values.
(§2) Amyloidβ peptide release (Aβ42 & AβTotal) assay are performed in 384 well microtiter plates (Perkin Elmer AlphaPlate #6008350) in a final volume of 20 μl, using supernatant coming from APPswe-HEK cells exposed to test compounds. Compounds are dissolved in and diluted in 100% DMSO and incubated with APPswe-HEK cells for 24 hours a 37° C. in 5% CO2. The supernatant from APPswe-HEK cells are mixed with antibodies: for Aβ42 detection: AlphaLisa Amyloid β 1-42 Kit (Perkin Elmer AL203L) Anti-Amyloid β1-42-specific antibody acceptor beads, biotinylated anti-Amyloid “β1-42” antibody and streptavidin (SA) donor beads diluted in AlphaLisa buffer (to the instructions of the supplier). For Aβ total detection: Custom Anti-Amyloid βtotal acceptor beads (6E10 acceptor beads), biotinylated anti-Amyloid “β1-42” antibody (Perkin Elmer AL203L) and streptavidin (SA) donor beads diluted in AlphaLisa buffer (to the instructions of the supplier). After addition of supernatant to the antibody mix, the assay is incubated 4 h and 30 minutes. AmyloidP peptide release (Aβ42 & AβTotal) is measured with a Pherastar FS (BMG) multimode reader using the alphascreen module.

Aβ42 = assay: Amyloidβ peptide release (Aβ42) assay, AlphaLisa on supernatant of APPswe-HEK cells; assay type: cell-based; details: Homo sapiens, 24 hours incubation with compound, read-out: Ab42 IC50 Ranges
Procedure: as §1, §2

Structure (SMILES)	IC50 (Aβ42)	Abtot/Ab42 selectivity ranges (AβTotal)
COc1cc(N(C)C(=O)c2nnn3c2CCCC3c2ccc(Cl)cc2)ccc1-n1cnc(C)c1 (stereo not drawn) [Example 48, 7-(4-chlorophenyl)-N-(3-methoxy-4-(4-methyl-1H-imidazol-1-yl)phenyl)-N-methyl-4,5,6,7-tetrahydro-[1,2,3]triazolo[1,5-a]pyridine-3-carboxamide]	< 1000 nM	a (a: selectivity ≧ 100 fold)
COc1cc(C(=O)Nc2nnn3c2CCC3c2ccc(Cl)cc2)ccc1-n1cnc(C)c1 (stereo not drawn) [Example 44, N-(6-(4-chlorophenyl)-5,6-dihydro-4H-pyrrolo[1,2-c][1,2,3]triazol-3-yl)-3-methoxy-4-(4-methyl-1H-imidazol-1-yl)benzamide]	150 to 500 nM	c (c: 50 fold > selectivity ≧ 10 fold)
COc1cc(Nc2nnn3c2CCCC3c2ccccc2C(F)(F)F)ccc1-n1cnc(C)c1 (stereo not drawn) [Example 2]	150 to 500 nM	a (a: selectivity ≧ 100 fold)
COc1cc(C(=O)Nc2nnn3c2CCCC3c2ccc(F)cc2Cl)ccc1-n1cnc(C)c1 (stereo not drawn) [Example 39, N-(7-(2-chloro-4-fluorophenyl)-4,5,6,7-tetrahydro-[1,2,3]triazolo[1,5-a]pyridin-3-yl)-3-methoxy-4-(4-methyl-1H-imidazol-1-yl)benzamide]	150 to 500 nM	b (b: 100 fold > selectivity ≧ 50 fold)
COc1cc(C(=O)Nc2nnn3c2CCCC3c2ccc(F)cc2)ccc1-n1cnc(C)c1 (stereo not drawn) [Example 43, N-(7-(4-fluorophenyl)-4,5,6,7-tetrahydro-[1,2,3]triazolo[1,5-a]pyridin-3-yl)-3-methoxy-4-(4-methyl-1H-imidazol-1-yl)benzamide]	< 1000 nM	a (a: selectivity ≧ 100 fold)
Cc1cn(-c2ccc(NC(=O)c3nnn4c3CCC4c3ccc(Cl)cc3)cc2F)cn1 (stereo not drawn) [Example 26, 6-(4-chlorophenyl)-N-(3-fluoro-4-(4-methyl-1H-imidazol-1-yl)phenyl)-5,6-dihydro-4H-pyrrolo[1,2-c][1,2,3]triazole-3-carboxamide]	150 to 500 nM	b (b: 100 fold > selectivity ≧ 50 fold)
COc1cc(C(=O)Nc2nnn3c2CCCC3c2cccc(C(F)(F)F)c2)ccc1-n1cnc(C)c1 (stereo not drawn) [Example 42, 3-methoxy-4-(4-methyl-1H-imidazol-1-yl)-N-(7-(3-(trifluoromethyl)phenyl)-4,5,6,7-tetrahydro-[1,2,3]triazolo[1,5-a]pyridin-3-yl)benzamide]	500 to 1000 nM	c (c: 50 fold > selectivity ≧ 10 fold)
Cc1cn(-c2ccc(NC(=O)c3nnn4c3CCCC4c3ccc(Cl)cc3)cc2C#N)cn1 (stereo not drawn) [Example 13, 7-(4-chlorophenyl)-N-(3-cyano-4-(4-methyl-1H-imidazol-1-yl)phenyl)-4,5,6,7-tetrahydro-[1,2,3]triazolo[1,5-a]pyridine-3-carboxamide]	150 to 500 nM	c (c: 50 fold > selectivity ≧ 10 fold)
COc1cc(Nc2nnn3c2CCCC3c2ccc(Cl)cc2)ccc1-n1cnc(C)c1 (stereo not drawn) [Example 4, 7-(4-chlorophenyl)-N-(3-methoxy-4-(4-methyl-1H-imidazol-1-yl)phenyl)-4,5,6,7-tetrahydro-[1,2,3]triazolo[1,5-a]pyridin-3-amine]	150 to 500 nM	b (b: 100 fold > selectivity ≧ 50 fold)
COc1cc(Nc2nnn3c2CCCC3c2ccc(F)cc2)ccc1-n1cnc(C)c1 (stereo not drawn) [Example 7, 7-(4-fluorophenyl)-N-(3-methoxy-4-(4-methyl-1H-imidazol-1-yl)phenyl)-4,5,6,7-tetrahydro-[1,2,3]triazolo[1,5-a]pyridin-3-amine]	150 to 500 nM	b (b: 100 fold > selectivity ≧ 50 fold)
COc1cc(C(=O)Nc2nnn3c2CCC3c2ccc(F)cc2)ccc1-c1ccnc(C)c1 (stereo not drawn) [Example 47, N-(6-(4-fluorophenyl)-5,-dihydro-4H-pyrrolo[1,2-c][1,2,3]triazol-3-yl)-3-methoxy-4-(2-methylpyridin-4-yl)benzamide]	< 1000 nM	d (d: 10 fold > selectivity)
COc1cc(Nc2nnn3c2CCC3c2ccc(Cl)cc2)ccc1-n1cnc(C)c1 (stereo not drawn) [Example 8, 6-(4-chlorophenyl)-N-(3-methoxy-4-(4-methyl-1H-imidazol-1-yl)phenyl)-5,6-dihydro-4H-pyrrolo[1,2-c][1,2,3]triazol-3-amine]	150 to 500 nM	a (a: selectivity ≧ 100 fold)
COc1cc(C(=O)Nc2nnn3c2CCCC3c2ccc(Cl)c(Cl)c2)ccc1-n1cnc(C)c1 (stereo not drawn) [Example 41, N-(7-(3,4-dichlorophenyl)-4,5,6,7-tetrahydro-[1,2,3]triazolo[1,5-a]pyridin-3-yl)-3-methoxy-4-(4-methyl-1H-imidazol-1-yl)benzamide]	150 to 500 nM	b (b: 100 fold > selectivity ≧ 50 fold)
COc1cc(NC(=O)c2nnn3c2CCCC3c2ccc(C(F)(F)F)cc2)ccc1-n1cnc(C)c1 (stereo not drawn) [Example 25, N-(3-methoxy-4-(4-methyl-1H-imidazol-1-yl)phenyl)-7-(4-(trifluoromethyl)phenyl)-4,5,6,7-tetrahydro-[1,2,3]triazolo[1,5-a]pyridine-3-carboxamide]	≤ 150 nM	c (c: 50 fold > selectivity ≧ 10 fold)
COc1nc(NC(=O)c2nnn3c2CCCC3c2ccc(Cl)cc2)ccc1-n1cnc(C)c1 (stereo not drawn) [Example 15, 7-(4-chlorophenyl)-N-(6-methoxy-5-(4-methyl-1H-imidazol-1-yl)pyridin-2-yl)-4,5,6,7-tetrahydro-[1,2,3]triazolo[1,5-a]pyridine-3-carboxamide]	500 to 1000 nM	c (c: 50 fold > selectivity ≧ 10 fold)

Further lines, with some results ahead:

IC50 (Aβ42)	Structure (SMILES)	Abtot/Ab42 selectivity ranges (AβTotal)
≤ 150 nM	COc1cc(NC(=O)c2nnn3c2CCC3c2ccc(Cl)cc2)ccc1-n1cnc(C)c1 (stereo not drawn) [Example 28, 6-(4-chlorophenyl)-N-(3-methoxy-4-(4-methyl-1H-imidazol-1-yl)phenyl)-5,6-dihydro-4H-pyrrolo[1,2-c][1,2,3]triazole-3-carboxamide]	b (b: 100 fold > selectivity ≧ 50 fold)
500 to 1000 nM	COc1cc(NC(=O)c2nnn3c2CCC3c2ccccc2Cl)ccc1-c1cnn(C)c1 (stereo not drawn) [Example 33, 6-(2-chlorophenyl)-N-(3-methoxy-4-(1-methyl-1H-pyrazol-4-yl)phenyl)-5,6-dihydro-4H-pyrrolo[1,2-c][1,2,3]triazole-3-carboxamide]	c (c: 50 fold > selectivity ≧ 10 fold)
< 1000 nM	COc1cc(NC(=O)c2nnn3c2CCC3c2ccc(F)cc2)ccc1-c1cnn(C)c1 (stereo not drawn) [Example 37, 6-(4-fluorophenyl)-N-(3-methoxy-4-(1-methyl-1H-pyrazol-4-yl)phenyl)-5,6-dihydro-4H-pyrrolo[1,2-c][1,2,3]triazole-3-carboxamide]	c (c: 50 fold > selectivity ≧ 10 fold)
150 to 500 nM	COc1cc(NC(=O)c2nnn3c2CCC3c2ccc(F)cc2)ccc1-n1cnc(C)c1 (stereo not drawn) [Example 36, 6-(4-fluorophenyl)-N-(3-methoxy-4-(4-methyl-1H-imidazol-1-yl)phenyl)-5,6-dihydro-4H-pyrrolo[1,2-c][1,2,3]triazole-3-carboxamide]	b (b: 100 fold > selectivity ≧ 50 fold)
150 to 500 nM	COc1cc(NC(=O)c2nnn3c2CCCC3c2ccc(F)cc2Cl)ccc1-n1cnc(C)c1 (stereo not drawn) [Example 17, 7-(2-chloro-4-fluorophenyl)-N-(3-methoxy-4-(4-methyl-1H-imidazol-1-yl)phenyl)-4,5,6,7-tetrahydro-[1,2,3]triazolo[1,5-a]pyridine-3-carboxamide]	c (c: 50 fold > selectivity ≧ 10 fold)
150 to 500 nM	COc1cc(NC(=O)c2nnn3c2CCCC3c2ccc(Cl)cc2)ccc1-c1ccnc(C)c1 (stereo not drawn) [Example 16, 7-(4-chlorophenyl)-N-(3-methoxy-4-(2-methylpyridin-4-yl)phenyl)-4,5,6,7-tetrahydro-[1,2,3]triazolo[1,5-a]pyridine-3-carboxamide]	c (c: 50 fold > selectivity ≧ 10 fold)
≤ 150 nM	COc1cc(NC(=O)c2nnn3c2CCC3c2ccccc2Cl)ccc1-n1cnc(C)c1 (stereo not drawn) [Example 32, 6-(2-chlorophenyl)-N-(3-methoxy-4-(4-methyl-1H-imidazol-1-yl)phenyl)-5,6-dihydro-4H-pyrrolo[1,2-c][1,2,3]triazole-3-carboxamide]	b (b: 100 fold > selectivity ≧ 50 fold)
150 to 500 nM	COc1cc(NC(=O)c2nnn3c2CCCC3c2ccccc2C(F)(F)F)ccc1-n1cnc(C)c1 (stereo not drawn) [Example 18, N-(3-methoxy-4-(4-methyl-1Himidazol-1-yl)phenyl)-7-(2-(trifluoromethyl)phenyl)-4,5,6,7-tetrahydro-[1,2,3]triazolo[1,5-a]pyridine-3-carboxamide]	c (c: 50 fold > selectivity ≧ 10 fold)
≤ 150 nM	COc1cc(NC(=O)c2nnn3c2CCC3c2ccc(Cl)c(Cl)c2)ccc1-n1cnc(C)c1 (stereo not drawn) [Example 34, 6-(3,4-dichlorophenyl)-N-(3-methoxy-4-(4-methyl-1H-imidazol-1-yl)phenyl)-5,6-dihydro-4H-pyrrolo[1,2-c][1,2,3]triazole-3-carboxamide]	a (a: selectivity ≧ 100 fold)
